“Also recorded” adds a separate entry of the source. Where no end group is shown, it is not given here.
Columns and labels:
[1] = test system: mixed cardiac cells (CMs and non-CMs); conditions: for toxicity, in words: nuclei counts of CMs and non-CMs
mixed cardiac cells [2] = test: High-content hypertrophy assay (Hypertrophy Score), PE-LIF-stimulated mixed cardiac cells treated with inhibitors; conditions: 96 h; for antihypertrophic effect (Hypertrophy Score), in words: comparison at 8 μM
mixed cardiac cells [3] = test: Profiling of hypertrophic stimulants in mixed cardiac cell culture (Hypertrophy Score); conditions: stimulants at three concentrations
GRK2 = conditions: read-out: GRK2 IC50; biochemical IC50, radiometric kinase inhibition assay; ref 40 (citation marks lost in text); cited from earlier work
purified CMs [4] = test: Profiling of hypertrophic stimulants in purified CM culture (Hypertrophy Score)
purified CMs [5] = test: qPCR of hypertrophic gene expression (Nppa, Nppb) in purified CMs; type: cell-based, rat; conditions: 100 µM PE + 50 ng/ml LIF, 24 h

Compound | antihypertrophic effect (Hypertrophy Score), in words (mixed cardiac cells [2]; PE-LIF (20 μM, 50 ng/mL)) | hypertrophic response (Hypertrophy Score), in words (mixed cardiac cells [3]) | further results
Cc1[nH]c(/C=C2\C(=O)Nc3ccc(C(=O)N[C@H](C)c4ccc(F)cc4)cc32)c(C)c1NC(=O)[C@H](O)c1ccco1 [Compound 4b] | no effect at any concentration; also recorded: lacked cellular efficacy; also recorded: no antihypertrophic efficacy |  | reduction in non-CM numbers (antiproliferative activity), in words ([1]; non-CM nuclei counts, 96 h): absent
endothelin-1 (CSCSSLMDKECVYFCHLDIIW; not fully specified (bridges); ends and bridges not checked; UniProt P05305 53-73, looked up) [ET-1] |  | robust hypertrophic effects | 
Cc1nc2c(C(=O)Nc3c(C)[nH]c(/C=C4\C(=O)Nc5ccc(C(=O)N[C@H](C)c6ccc(F)cc6)cc54)c3C)cccc2[nH]1 [Compound 5m] | partially reduced the Hypertrophy Score |  | 
Cc1[nH]c(/C=C2\C(=O)Nc3ccc(C(=O)N[C@H](C)c4ccc(F)cc4)cc32)c(C)c1NC(=O)c1ccoc1 [Compound 5b] | nor significant antihypertrophic effects; also recorded: surprisingly poor cellular efficacy |  | toxicity, in words [1]: neither toxicity
CNC[C@H](O)c1cccc(O)c1 [PE, phenylephrine] |  | strongest response | 
Cc1nc(C(=O)Nc2c(C)[nH]c(/C=C3\C(=O)Nc4ccc(C(=O)N[C@H](C)c5ccc(F)cc5)cc43)c2C)c(C)s1 [Compound 5d] | appeared to reduce hypertrophy |  | concentration at which CMs are affected ([1]; CM nuclei counts, 96 h): ≥ 2000 nM; concentration from which non-CM numbers are reduced ([1]; non-CM nuclei counts, 96 h): ≥ 500 nM; toxicity, in words [1]: excluded due to toxicity
transforming growth factor beta [TGFβ] |  | little to no effect | 
NC[C@H](O)c1ccc(O)c(O)c1 [NE, norepinephrine] |  | weaker response than PE alone | 
Cc1[nH]c(/C=C2\C(=O)Nc3ccc(C(=O)N[C@H](C)c4ccc(F)cc4)cc32)c(C)c1NC(=O)[C@H]1CCC(=O)O1 [Compound 5k] | nor significant antihypertrophic effects; also recorded: lacked cellular efficacy |  | toxicity, in words [1]: neither toxicity
Cc1[nH]c(/C=C2\C(=O)Nc3ccc(C(=O)N[C@H](C)c4ccc(F)cc4)cc32)c(C)c1NC(=O)C1CCOCC1 [Compound 5i] | partially reduced the Hypertrophy Score |  | 
Cc1[nH]c(/C=C2\C(=O)Nc3ccc(C(=O)N[C@H](C)c4ccc(F)cc4)cc32)c(C)c1NC(=O)C(=O)c1ccco1 [Compound 3] | partially reduced the Hypertrophy Score; also recorded: surprisingly poor cellular efficacy |  | IC50 (GRK2): […]; reduction in non-CM numbers (antiproliferative activity), in words ([1]; non-CM nuclei counts, 96 h): most pronounced
leukemia inhibitory factor [LIF] |  | little to no effect | hypertrophic response (Hypertrophy Score), in words (purified CMs [4]): significantly increased the Hypertrophy Score
Cc1[nH]c(/C=C2\C(=O)Nc3ccc(C(=O)N[C@H](C)c4ccc(F)cc4)cc32)c(C)c1NC(=O)[C@@H](O)c1ccco1 [Compound 4a] | most potent cellular inhibitor; also recorded: clear cellular effects |  | PE-LIF-induced upregulation of Nppa and Nppb, in words (purified CMs [5]): prevented PE-LIF-induced upregulation of Nppa and Nppb; concentration from which PE-LIF-induced Hypertrophy Score is significantly reduced (mixed cardiac cells [2]; PE-LIF (20 μM, 50 ng/mL)): ≥ 3 µM; IC50 (mixed cardiac cells [2]; Rattus norvegicus, read-out: cellular IC50 (antihypertrophic effects)): 4.7 µM

Reference: PMC12794055, “High-Throughput Cardiac Hypertrophy Phenotyping Supports Lead Optimization of GRK5 Inhibitors” (ACS Medicinal Chemistry Letters, 2025)
